Here are results for 62 compounds from article PMC10054465, “Design, Synthesis, and Antiviral Activities of New Benzotriazole-Based Derivatives” (Pharmaceuticals, 2023).

Where only a bound is given, the exact number is not on record here.

A word on the melting point: it is the temperature of the solid-liquid transition. Regarding `CCCNC(=O)Nc1ccc(Cn2nnc3ccccc32)cc1`, the melting point was in the range of 165 to 167 °C. Take `O=C(Nc1ccc(Cn2nnc3ccccc32)cc1)NC1CCCCC1`: the melting point was 141 to 143 °C. The result for `O=C(Nc1ccccc1)Nc1ccc(Cn2nnc3ccccc32)cc1` reads 159 to 161 °C. The result for `CCNC(=O)Nc1ccc(Cn2nnc3cc(F)c(F)cc32)cc1` reads 286 to 287 °C; that for `CCCNC(=O)Nc1ccc(Cn2nnc3cc(F)c(F)cc32)cc1`, 286 to 287 °C. Then `O=C(Nc1ccc(Cn2nnc3cc(F)c(F)cc32)cc1)NC1CCCCC1`, with 203 to 204 °C; and `CC(=O)Nc1ccc(Cn2nnc3c(F)cccc32)cc1`, with 233 to 234 °C.

For the compound `CCC(=O)Nc1ccc(Cn2nnc3c(F)cccc32)cc1`, the melting point lay within 244 to 246 °C. On to `CCCC(=O)Nc1ccc(Cn2nnc3c(F)cccc32)cc1`, for which the melting point lay in the range of 215 to 216 °C. Then `O=C(Nc1ccc(Cn2nnc3c(F)cccc32)cc1)c1ccccc1`, with 214 to 217 °C; and `O=C(Nc1ccc(Cn2nnc3c(F)cccc32)cc1)c1ccc([N+](=O)[O-])cc1`, with 272 to 274 °C; and `CC(=O)Nc1cccc(Cn2nc3cc(C)c(C)cc3n2)c1`, with 184 to 187 °C.

Regarding `CCC(=O)Nc1cccc(Cn2nc3cc(C)c(C)cc3n2)c1`, the melting point was in the range of 178 to 182 °C. In turn, `Cc1cc2nn(Cc3cccc(NC(=O)c4ccc(Br)cc4)c3)nc2cc1C` returned a melting point of 267 to 268 °C. As to `Cc1cc2nn(Cc3cccc(NC(=O)c4ccc([N+](=O)[O-])cc4)c3)nc2cc1C`, the melting point was in the range of 184 to 187 °C. `CCNC(=O)Nc1cccc(Cn2nc3cc(C)c(C)cc3n2)c1` came in with a melting point of 218 to 219 °C. With `CCCNC(=O)Nc1cccc(Cn2nc3cc(C)c(C)cc3n2)c1`, the melting point lay within 204 to 206 °C. As to `Cc1cc2nn(Cc3cccc(NC(=O)NC4CCCC4)c3)nc2cc1C`, the melting point was in the range of 298 to 299 °C. Then `Cc1cc2nn(Cc3cccc(NC(=O)NC4CCCCC4)c3)nc2cc1C`, with 299 to 300 °C; and `CC(=O)Nc1cccc(Cn2nnc3cc(C)c(C)cc32)c1`, with 198 to 200 °C. In the case of `CCC(=O)Nc1cccc(Cn2nnc3cc(C)c(C)cc32)c1`, the melting point lay in the range of 155 to 157 °C.

With `Cc1ccc(C(=O)Nc2cccc(Cn3nnc4cc(Cl)c(Cl)cc43)c2)cc1`, the melting point lay in the range of 199 to 200 °C. Then `COc1ccc(C(=O)Nc2cccc(Cn3nnc4cc(Cl)c(Cl)cc43)c2)cc1`, with 221 to 223 °C; and `O=C(Nc1cccc(Cn2nnc3cc(Cl)c(Cl)cc32)c1)c1ccc(F)cc1`, with 184 to 186 °C; and `O=C(Nc1cccc(Cn2nnc3cc(Cl)c(Cl)cc32)c1)c1ccc(C(F)(F)F)cc1`, with 211 to 213 °C. Regarding `O=C(Nc1cccc(Cn2nnc3cc(Cl)c(Cl)cc32)c1)c1ccc([N+](=O)[O-])cc1`, the melting point is 217 to 218 °C. As for `Nc1ccc(C(=O)Nc2cccc(Cn3nnc4cc(Cl)c(Cl)cc43)c2)cc1`, the melting point is 101 to 102 °C. Then `Cc1ccc(C(=O)Nc2cccc(Cn3nnc4cc(C)c(C)cc43)c2)cc1`, with 211 to 212 °C. Then `COc1ccc(C(=O)Nc2cccc(Cn3nnc4cc(C)c(C)cc43)c2)cc1`, with 203 to 206 °C. Compound `Cc1cc2nnn(Cc3cccc(NC(=O)c4ccc(F)cc4)c3)c2cc1C` registered a melting point of 143 to 147 °C. `Cc1cc2nnn(Cc3cccc(NC(=O)c4ccc(Br)cc4)c3)c2cc1C` gave a melting point of 237 to 238 °C. The result for `Cc1cc2nnn(Cc3cccc(NC(=O)c4ccc(C#N)cc4)c3)c2cc1C` reads 242 to 247 °C. The compound `Cc1cc2nnn(Cc3cccc(NC(=O)c4ccc(C(F)(F)F)cc4)c3)c2cc1C` yielded a melting point of 201 to 203 °C. `Cc1cc2nnn(Cc3cccc(NC(=O)c4ccc([N+](=O)[O-])cc4)c3)c2cc1C` displayed a melting point of 227 to 230 °C.

As to `CCCNC(=O)Nc1cccc(Cn2nnc3cc(Cl)c(Cl)cc32)c1`, the melting point was greater than 300 °C. As to `CCCCNC(=O)Nc1cccc(Cn2nnc3cc(Cl)c(Cl)cc32)c1`, the melting point lay in the range of 232 to 233 °C. Turning to `O=C(Nc1cccc(Cn2nnc3cc(Cl)c(Cl)cc32)c1)NC1CCCC1`, the melting point fell in the range of 231 to 232 °C. Then `CCNC(=O)Nc1cccc(Cn2nnc3cc(C)c(C)cc32)c1`, with 271 to 273 °C; and `CCCNC(=O)Nc1cccc(Cn2nnc3cc(C)c(C)cc32)c1`, with 189 to 191 °C; and `CCC(C)NC(=O)Nc1cccc(Cn2nnc3cc(C)c(C)cc32)c1` (centres unmarked), with 202 to 204 °C.

For `CCCCNC(=O)Nc1cccc(Cn2nnc3cc(C)c(C)cc32)c1`, the melting point fell in the range of 195 to 197 °C.

`Cc1cc2nnn(Cc3cccc(NC(=O)NC(C)(C)C)c3)c2cc1C`: the melting point lay in the range of 189 to 191 °C.

For `Cc1cc2nnn(Cc3cccc(NC(=O)NC4CCCC4)c3)c2cc1C`, the melting point was 290 to 292 °C. `Cc1cc2nnn(Cc3cccc(NC(=O)NC4CCCCC4)c3)c2cc1C` gave a melting point of 233 to 235 °C. The result for `COc1cc(NC(=O)Nc2cccc(Cn3nnc4cc(C)c(C)cc43)c2)cc(OC)c1OC` reads 206 to 208 °C; that for `Cc1cc2nnn(Cc3cccc(NC(=O)Nc4ccc(F)cc4)c3)c2cc1C`, 245 to 247 °C.

With `Cc1cc2nnn(Cc3cccc(NC(=O)Nc4ccc(Cl)cc4)c3)c2cc1C`, the melting point was in the range of 249 to 251 °C.

In turn, `CCC(=O)Nc1ccc(Cn2nnc3ccccc32)cc1` returned a melting point of 192 to 195 °C.

Take `CC(=O)Nc1ccc(Cn2nnc3cc(F)c(F)cc32)cc1`: the melting point is 242 to 243 °C. With `CCC(=O)Nc1ccc(Cn2nnc3cc(F)c(F)cc32)cc1`, the melting point lay in the range of 240 to 242 °C. Then `COc1ccc(C(=O)Nc2ccc(Cn3nnc4cc(C)c(C)cc43)cc2)cc1`, with 196 to 198 °C; and `O=C(Nc1ccc(Cn2nnc3ccccc32)cc1)c1ccc([N+](=O)[O-])cc1`, with 245 to 246 °C.

`COc1cc(C(=O)Nc2ccc(Cn3nnc4ccccc43)cc2)cc(OC)c1OC` gave a melting point of 147 to 149 °C. In the case of `O=C(Nc1ccc(Cn2nnc3ccccc32)cc1)c1ccc(OC(F)(F)F)cc1`, the melting point was in the range of 229 to 231 °C. Then `Cc1ccc(C(=O)Nc2ccc(Cn3nnc4cc(F)c(F)cc43)cc2)cc1`, with 297 to 299 °C; and `O=C(Nc1ccc(Cn2nnc3cc(F)c(F)cc32)cc1)c1ccc([N+](=O)[O-])cc1`, with 240 to 242 °C. Turning to `O=C(Nc1ccc(Cn2nnc3cc(F)c(F)cc32)cc1)c1ccc(F)cc1`, the melting point fell in the range of 241 to 242 °C. Then `O=C(Nc1ccc(Cn2nnc3cc(F)c(F)cc32)cc1)c1ccc(Cl)cc1`, with 263 to 264 °C.

`O=C(Nc1ccc(Cn2nnc3cc(F)c(F)cc32)cc1)c1ccc(Br)cc1` registered a melting point of 235 to 236 °C. Then `CCNC(=O)Nc1ccc(Cn2nnc3cc(Cl)c(Cl)cc32)cc1`, with 211 to 212 °C; and `CCCCNC(=O)Nc1ccc(Cn2nnc3cc(Cl)c(Cl)cc32)cc1`, with 216 to 217 °C.

With `O=C(Nc1ccc(Cn2nnc3cc(Cl)c(Cl)cc32)cc1)NC1CCCCC1`, the melting point lay within 130 to 132 °C.
